From ChEMBL document CHEMBL1136097, “Synthesis of the first examples of A-C8/C-C2 amide-Linked pyrrolo[2,1-c][1,4]benzodiazepine dimers” (Bioorg Med Chem Lett, 2003)

Experiments:
A2780cisR = test: In vitro inhibitory activity against human tumor cell line A2780cis; type: functional, cell-based
[1] = In vitro inhibitory activity against human tumor cell line CHI; type: functional
[2] = In vitro inhibitory activity against human tumor cell line CHIcis; type: functional
SK-OV-3 = test: In vitro inhibitory activity against human tumor cell line SKOV-3; type: functional, cell-based
A2780 = test: In vitro inhibitory activity against human tumor cell line A2780; type: functional, cell-based

Measured: IC50

COc1cc2c(cc1OC)C(=O)N1C=C(CC(=O)Nc3ccc4c(c3)N=C[C@@H]3CCCN3C4=O)C[C@H]1C=N2
> 25 µM: all assays above
